Patent US9751919B2, “Antimicrobial compositions comprising a hyaluronic acid binding peptide and a β-lactam antibiotic” (priority 2012, dated 2017)
“And” between values parts separate entries of the source, which are not always exact repeats. Identical values can stand only once. Marks after values point to notes of the source that are not given here.

Assays:
Format in all cases: cell-based, Staphylococcus aureus
MSSA [1] = assay: MIC (CLSI broth dilution), agent alone; conditions: MSSA 79333, agent alone
In short: (§1)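 S. aureus isolates were tested by CLSI 2005 broth macrodilution in doubling dilutions of cation-adjusted Mueller-Hinton broth. Inoculum was about 5×10^5 CFU/ml, with 24 h incubation in ambient air. MIC was the lowest concentration inhibiting visible growth, with an MSSA and ATCC QC strains as controls.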

HA-MRSA = assay: MIC (CLSI broth dilution), agent alone
In short: as §1

CA-MRSA = assay: MIC (CLSI broth dilution), agent alone
In short: as §1

MSSA [2] = assay: Checkerboard assay (FIC index);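 further: each agent diluted from 0.03 to 4 times its MIC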
Method: (§2) Checkerboard assays were carried out as described by Bonapace et al.
(§3) Diagnostic Microbiology and Infectious Diseases 2002; 44:363-366. In brief, checkerboard assays were performed in 96 well microtitre trays using an 8-by-8 well configuration. […] 96-well custom designed microtitre plates contained 100 ul/well of cation adjusted Mueller-Hinton broth (eg. for Enterobacteriaceae) with or without lysed horse blood (2-5% V/V) [eg. for S. pneumoniae] and were inoculated to achieve a final concentration of approximately 5×10^5 CFU/ml and incubated in ambient air for 24 hours prior to reading. Colony counts were performed periodically to confirm inocula. Quality control was performed every two weeks using a variety of ATCC QC organisms including; S. pneumoniae 49619, S. aureus 29213, E. faecalis 29212, E. coli 25922 and P. aeruginosa 27853. […] All peptides were assessed for synergy with β-lactams and vancomycin. For all antimicrobials as well as the peptides, CLSI criteria were used.
(§4) The fractional inhibitory concentration index (FIC index) was used to interpret synergy, antagonism or additivity/indifference. FIC index=FIC of drug A+FIC of drug B where:
(§5) The FIC of drug A and drug B was calculated as follows, FIC drug A=MIC of drug A in combination/MIC of drug A alone and FIC of drug B=MIC of drug B in combination/MIC of drug B alone. Synergy was defined as FIC index ≦0.5, additivity/indifference defined as a FIC between 0.5 and 4 and antagonism defined as an FIC index >4.
(§6) The checkerboard assays were carried out as described by Eliopoulos and Moellering (Chapter 9) in Antibiotic in Laboratory Medicine, Lorian Ed. 1996 as well as Bonapace et al. Diagnostic Microbiology and Infectious Diseases 2002; 44:363-366 and Bonapace et al. Diagnostic Microbiology and Infectious Diseases 2000; 38:43-50. In brief, checkerboard assays were performed in 96 well microtitre trays using an 8-by-8 well configuration. […] 96-well custom designed microtitre plates contained 100 ul/well of cation adjusted Mueller-Hinton broth (eg. for Enterobacteriaceae) with or without lysed horse blood (2-5% V/V) [eg. for S. pneumoniae] and were inoculated to achieve a final concentration of approximately 5×10^5 CFU/ml and incubated in ambient air for 24 hours prior to reading. Colony counts were performed periodically to confirm inocula. Quality control was performed every two weeks using a variety of ATCC QC organisms including; S. pneumoniae 49619, S. aureus 29213, E. faecalis 29212, E. coli 25922 and P. aeruginosa 27853. For all antimicrobials as well as PEP35, CLSI criteria was used.
(§7) The FIC of drug A and drug B is calculated as follows, FIC drug A=MIC of drug A in combination/MIC of drug A alone and FIC of drug B=MIC of drug B in combination/MIC of drug B alone. Synergy is defined as FIC index ≦0.5, additivity/indifference FIC >0.5-4 and antagonism FIC index >4.
(§8) Antimicrobials used included PEP35, cefazolin, ceftriaxone, vancomycin, linezolid, tigecycline and daptomycin versus Gram-positive cocci and PEP35, gentamicin, levofloxacin, piperacillin/tazobactam, meropenem and colistin (Polymyxin E) versus Gram-negative bacilli. These agents were obtained as laboratory grade powders from their respective manufacturers. Stock solutions were prepared and dilutions made as described by the Clinical Laboratory Standards Institute (2005 CLSI).
(§9) Organisms included Gram-positive cocci (2 strains of each): Methicillin-susceptible Staphylococcus aureus (MSSA), community-associated (CA) and healthcare-associated (HA) methicillin-resistant Staphylococcus aureus (MRSA), vancomycin-intermediate Staphylococcus aureus (VISA), vancomycin-resistant Staphylococcus aureus (VRSA), methicillin-resistant Staphylococcus epidermidis (MRSE), Streptococcus pyogenes, Streptococcus agalactiae, Streptococcus pneumoniae, Enterococcus faecalis, Enterococcus faecium and vancomycin-resistant enterococcus (VRE). […]

VISA = assay: Checkerboard assay (FIC index);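 further: each agent diluted from 0.03 to 4 times its MIC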
Method: as §2, §3, §4, §5, §6, §7, §8, §9

[3] = HA-MRSA 70798 (USA100/800), agent alone, in µg/mL
[4] = CA-MRSA 69615 (USA400), agent alone, in µg/mL
[5] = CA-MRSA 70857 (USA400), agent alone, in µg/mL
[6] = antibiotic combined with PEP35, MSSA 79333
[7] = antibiotic combined with PEP35, MSSA 83424
[8] = antibiotic combined with PEP35, VISA 92
[9] = antibiotic combined with PEP35, VISA 95
[10] = antibiotic combined with PEP35, VISA 96
[11] = HA-MRSA 77098 (USA100/800), agent alone
[12] = β-lactam combined with HybPEP35-1, MSSA 79333
[13] = β-lactam combined with PEP-52, MSSA 79333
[14] = β-lactam combined with Scrambled PEP35, MSSA 79333
[15] = β-lactam combined with HybPEP35-1, VISA 96
[16] = β-lactam combined with PEP-52, VISA 96
[17] = β-lactam combined with Scrambled PEP35, VISA 96

Row | Molecule | MIC (HA-MRSA; [3]) | MIC (CA-MRSA; [4]) | MIC (CA-MRSA; [5]) | Avg ΣFIC (range) (MSSA [2]; [6]) | Avg ΣFIC (range) (MSSA [2]; [7]) | Avg ΣFIC (range) (VISA; [8]) | Avg ΣFIC (range) (VISA; [9]) | Avg ΣFIC (range) (VISA; [10]) | MIC (HA-MRSA; [11]) | Avg ΣFIC (range) (MSSA [2]; [12]) | Avg ΣFIC (range) (MSSA [2]; [13]) | Avg ΣFIC (range) (MSSA [2]; [14]) | Avg ΣFIC (range) (VISA; [15]) | Avg ΣFIC (range) (VISA; [16]) | Avg ΣFIC (range) (VISA; [17]) | also measured
1 | KKKKKLQLQLNLIKKKVQVSVVVVRRH (Reordered human peptide sequence) [Scrambled PEP35] | 256 | 256 | 256 | – | – | – | – | – | – | – | – | – | – | – | – | MIC (MSSA [1]; in µg/mL): 64; MIC (HA-MRSA; HA-MRSA 77090 (USA100/800), agent alone, in µg/mL): 512
2 | CC(=O)NC[C@H]1CN(c2ccc(N3CCOCC3)c(F)c2)C(=O)O1 [Linezolid, linezolid] | – | – | – | 1.05 (0.75-1.25) | 0.74 (0.515-1.06) | 0.99 (0.75-1.12) | 0.98 (0.62-1.25) | 0.77 (0.56-1.06) | – | – | – | – | – | – | – | –
3 | CN(C)c1cc(NC(=O)CNC(C)(C)C)c(O)c2c1C[C@H]1C[C@H]3[C@H](N(C)C)C(O)=C(C(N)=O)C(=O)[C@@]3(O)C(O)=C1C2=O [Tigecycline, tigecycline] | – | – | – | 0.99 (0.62-1.5) | 0.85 (0.5-1.12) | 0.56 (0.31-1.06) | 0.46 (0.37-0.56) and 0.43 (0.31-0.56) | 0.91 (0.62-1.12) | – | – | – | – | – | – | – | –
4 | CO/N=C(\C(=O)N[C@@H]1C(=O)N2C(C(=O)O)=C(CSc3nc(=O)c(=O)[nH]n3C)CS[C@H]12)c1csc(N)n1 [Ceftriaxone] | 2048 | 256 and 512 | 256 and 128 | – | 0.80 (0.5-1.12) | 0.52 (0.28-1.06) | 0.28 (0.09-0.56) and 0.37 (0.18-0.56) | – | 4096/4096 | 0.98 | >1* | 0.98 | 0.26 | >1* | 0.26 | MIC (MSSA [1]): 8 and 4/4; MIC (MSSA [1]; listed as CEFTRIAXONE): 4/4; MIC (HA-MRSA; HA-MRSA 77090 (USA100/800), agent alone): 512 and 1024/1024; MIC (HA-MRSA; HA-MRSA 77090 (USA100/800)^a row, antibiotic alone, in µg/mL): 512; MIC (HA-MRSA; HA-MRSA 77090 (USA100/800)^b row, antibiotic alone, in µg/mL): 512; MIC (CA-MRSA; CA-MRSA 69615 (USA400), agent alone, listed as CEFTRIAXONE, in µg/mL): 128 and 64; MIC (CA-MRSA; CA-MRSA 69615 (USA400)^a row, antibiotic alone, in µg/mL): 512; MIC (CA-MRSA; CA-MRSA 69615 (USA400)^b row, antibiotic alone, in µg/mL): 256
5 | C[C@@H](O)[C@H]1C(=O)N2C(C(=O)O)=C(S[C@@H]3CN[C@H](C(=O)N(C)C)C3)[C@H](C)[C@H]12 [Meropenem] | 64 | – | – | 0.52 | – | – | – | 0.41 | 64/64 | 1.11 | >1* | 1.11 | 0.45 | >1* | 0.45 | MIC (CA-MRSA; CA-MRSA 70857 (USA400), agent alone): 2 and 4/4
